Data from patent US20240360134A1, “PYRAZOLOPYRIMIDINES AND THEIR USES AS PDGFR INHIBITORS” (priority 2021, published 2024).

Tests used:
[1] = molecular target: VEGFR2, unphosphorylated (Homo sapiens (Human), UniProt P35968); test: VEGFR ADP GLO assay; format: biochemical; conditions: 5 nM VEGFR2, 1.2 mM ATP, 1 mg/mL Srctide, 180 min
Summary of the method: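 Unphosphorylated kinase (10 nM 2× solution) pre-incubated 30 min at RT with compounds (11-point, 3-fold, top 10 µM), then reacted 180 min with srctide and ATP (2×: 2 mg/mL, 2.4 mM) in HEPES pH 7.5 buffer. ADP read by luminescence. IC50 from 4-parameter fit, normalized to DMSO and 1 µM TAK-593.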

[2] = molecular target: His6-TEV-PDGFRβ (557-1016) (Homo sapiens (Human), UniProt P09619); test: PDGFRβ HTRF Assay; format: biochemical; conditions: 800 μM ATP, 0.5 μM TK-substrate biotin peptide, 30 min pre-incubation, 3 hours reaction; read-out: PDGFR HTRF IC50
Chain of His6-TEV-PDGFRβ (557-1016) (P09619 whole entry, looked up): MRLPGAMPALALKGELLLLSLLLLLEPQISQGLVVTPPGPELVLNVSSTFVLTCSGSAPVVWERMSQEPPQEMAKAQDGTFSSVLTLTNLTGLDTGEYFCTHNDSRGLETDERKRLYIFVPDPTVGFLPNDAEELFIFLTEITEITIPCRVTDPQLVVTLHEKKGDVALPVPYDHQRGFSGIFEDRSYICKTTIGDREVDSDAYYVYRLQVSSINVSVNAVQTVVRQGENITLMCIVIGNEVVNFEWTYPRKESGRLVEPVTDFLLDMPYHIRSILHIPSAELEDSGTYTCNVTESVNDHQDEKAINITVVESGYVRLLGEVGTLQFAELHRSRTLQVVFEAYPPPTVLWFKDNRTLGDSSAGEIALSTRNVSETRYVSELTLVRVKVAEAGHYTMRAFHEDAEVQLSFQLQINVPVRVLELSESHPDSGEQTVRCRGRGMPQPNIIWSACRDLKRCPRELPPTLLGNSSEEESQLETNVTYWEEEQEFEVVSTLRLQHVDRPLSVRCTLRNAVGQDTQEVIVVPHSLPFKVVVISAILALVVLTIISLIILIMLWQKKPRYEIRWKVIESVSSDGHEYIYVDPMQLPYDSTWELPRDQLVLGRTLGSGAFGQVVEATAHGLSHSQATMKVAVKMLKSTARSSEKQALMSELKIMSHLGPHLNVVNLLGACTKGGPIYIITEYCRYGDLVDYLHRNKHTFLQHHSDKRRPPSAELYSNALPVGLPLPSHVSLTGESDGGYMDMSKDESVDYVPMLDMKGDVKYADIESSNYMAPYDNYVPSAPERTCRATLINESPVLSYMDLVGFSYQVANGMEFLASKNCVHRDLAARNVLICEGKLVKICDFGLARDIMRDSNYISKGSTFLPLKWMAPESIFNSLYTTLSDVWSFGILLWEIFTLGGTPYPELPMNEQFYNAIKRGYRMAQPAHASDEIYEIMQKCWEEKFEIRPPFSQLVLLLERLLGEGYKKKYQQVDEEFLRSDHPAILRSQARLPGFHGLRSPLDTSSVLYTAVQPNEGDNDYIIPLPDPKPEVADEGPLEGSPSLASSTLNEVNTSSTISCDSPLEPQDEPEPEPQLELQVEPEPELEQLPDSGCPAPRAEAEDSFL
Protocol: Instrumentation: a. Compound liquid handling: LabCyte Echo; b. Reagent liquid handling: Thermo Scientific Multidrop Combi; c. BMG PHERAStar multilabel plate reader.
Protein Reagent: His6-TEV-PDGFRβ Protein Prep prepared at Accelagen.
Assay buffer stock solution, contains 50 mM Hepes, 10 mM MgCl2, 1 mM EGTA, and 0.01% Brij-35, 0.01% ovalbumin, 2 mM DTT at pH 7.5, in molecular biology grade water. Store at room temperature.
Assay buffer. Dilute 5× Kinase buffer 5-fold with molecular biology grade water and add DTT to 2 mM and ovalbumin to 0.1 mg/mL (or 0.01%).
2× protein solution. Make a working solution of […] PDGFRβ in assay buffer. Keep on ice until use to maintain enzyme stability.
2× substrate solution. Make a working solution of 1.6 mM ATP and 1 μM TK-substrate biotin peptide in assay buffer. 3× quench/detection solution.
Step 2. PDGFRβ E+I pre-incubation: Add 2 μL 2× protein solution to columns 1-24 using the Multidrop Combi. Centrifuge at 1000 rpm for 1 min. Incubate 30 min at RT
Step 2. Enzymatic reaction: Add 2 μL substrate solution to columns 1-24 to initiate the reaction using the Multidrop Combi; cover/seal the assay plate to reduce evaporation. Centrifuge at 1000 rpm for 1 min. Incubate at room temperature for 3 hours.
Final concentrations of components in PDGFRp cascade assay:
0.5 μM TK-substrate biotin peptide
Step 3. Quench/Detection: Add 2 μl 3× quench/detection solution to columns 1-24 using the Multidrop Combi; cover/seal the plate. Centrifuge 1 min 1000 rpm. Incubate at RT for 60 min.
HTRF ratio values calculated by the instrument (Ratio is acceptor counts/donor counts*10,000) is exported from the plate reader and used in data analysis. The exported data will be used to calculate 1) compound activity and 2) assay statistics. […] Assay statistics can include Robust Z′ and Signal to Background.
% Inhibition Calculation: Percent inhibition will be calculated for sample wells based on the equation: […]
IC50 Calculation: For IC50 determination, full 11-point dose response data will be processed using the following equation: […]

[3] = molecular target: Tb-labeled inactive PDGFRβ (Homo sapiens (Human), UniProt P09619); test: biochemical; format: binding; conditions: read-out: PDGFR Lantha IC50
Chain of Tb-labeled inactive PDGFRβ (P09619 whole entry, looked up): as above

[4] = molecular target: PDGFRβ (Rattus norvegicus (Rat), UniProt Q05030); test: PDGFRβ Cellular Assay (PDGFRb P-Y751 HTRF, PDGF-BB stimulated A10 cells); format: cell-based; conditions: A10 cells, 3 hours compound, 15 ng/mL PDGFbb for 10 minutes; read-out: PDGFR Cellular IC50
Chain of PDGFRβ (Q05030 whole entry, looked up): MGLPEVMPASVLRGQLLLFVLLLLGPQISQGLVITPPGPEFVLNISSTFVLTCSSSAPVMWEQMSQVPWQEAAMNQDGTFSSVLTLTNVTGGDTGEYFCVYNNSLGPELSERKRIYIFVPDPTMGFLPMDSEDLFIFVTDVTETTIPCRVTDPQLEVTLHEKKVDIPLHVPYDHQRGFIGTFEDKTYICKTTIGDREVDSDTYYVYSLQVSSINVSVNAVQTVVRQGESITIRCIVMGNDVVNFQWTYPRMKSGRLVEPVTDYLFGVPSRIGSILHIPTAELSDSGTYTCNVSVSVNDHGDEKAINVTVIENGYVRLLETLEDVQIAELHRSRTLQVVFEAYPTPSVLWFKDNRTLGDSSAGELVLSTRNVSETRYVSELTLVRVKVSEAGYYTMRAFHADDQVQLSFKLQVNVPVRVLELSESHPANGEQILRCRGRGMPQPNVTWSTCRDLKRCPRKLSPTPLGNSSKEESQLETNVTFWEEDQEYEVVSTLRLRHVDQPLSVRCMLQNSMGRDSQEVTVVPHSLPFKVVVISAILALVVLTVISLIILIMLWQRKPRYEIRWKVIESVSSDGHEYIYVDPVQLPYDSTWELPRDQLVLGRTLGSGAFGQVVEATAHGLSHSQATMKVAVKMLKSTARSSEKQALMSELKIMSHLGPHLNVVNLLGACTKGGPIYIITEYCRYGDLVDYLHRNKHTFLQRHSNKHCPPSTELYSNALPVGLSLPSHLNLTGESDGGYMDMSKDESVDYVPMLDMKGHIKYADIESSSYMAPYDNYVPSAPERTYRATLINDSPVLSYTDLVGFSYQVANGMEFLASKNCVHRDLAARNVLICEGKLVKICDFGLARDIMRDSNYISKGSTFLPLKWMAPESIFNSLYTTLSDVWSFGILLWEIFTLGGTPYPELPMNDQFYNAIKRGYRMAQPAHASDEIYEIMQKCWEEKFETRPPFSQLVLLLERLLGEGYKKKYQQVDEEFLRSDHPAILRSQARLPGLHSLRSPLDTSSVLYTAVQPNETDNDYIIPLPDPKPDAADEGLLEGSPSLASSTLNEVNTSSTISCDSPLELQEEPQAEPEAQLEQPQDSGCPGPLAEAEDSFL
Summary of the method: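 Rat A10 cells plated overnight were treated with compound for 3 h, stimulated with rat PDGF-BB (working stock 100 ng/mL in 10% FBS medium) for 10 min, then lysed.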

Chain of VEGFR2, unphosphorylated (P35968 whole entry, looked up): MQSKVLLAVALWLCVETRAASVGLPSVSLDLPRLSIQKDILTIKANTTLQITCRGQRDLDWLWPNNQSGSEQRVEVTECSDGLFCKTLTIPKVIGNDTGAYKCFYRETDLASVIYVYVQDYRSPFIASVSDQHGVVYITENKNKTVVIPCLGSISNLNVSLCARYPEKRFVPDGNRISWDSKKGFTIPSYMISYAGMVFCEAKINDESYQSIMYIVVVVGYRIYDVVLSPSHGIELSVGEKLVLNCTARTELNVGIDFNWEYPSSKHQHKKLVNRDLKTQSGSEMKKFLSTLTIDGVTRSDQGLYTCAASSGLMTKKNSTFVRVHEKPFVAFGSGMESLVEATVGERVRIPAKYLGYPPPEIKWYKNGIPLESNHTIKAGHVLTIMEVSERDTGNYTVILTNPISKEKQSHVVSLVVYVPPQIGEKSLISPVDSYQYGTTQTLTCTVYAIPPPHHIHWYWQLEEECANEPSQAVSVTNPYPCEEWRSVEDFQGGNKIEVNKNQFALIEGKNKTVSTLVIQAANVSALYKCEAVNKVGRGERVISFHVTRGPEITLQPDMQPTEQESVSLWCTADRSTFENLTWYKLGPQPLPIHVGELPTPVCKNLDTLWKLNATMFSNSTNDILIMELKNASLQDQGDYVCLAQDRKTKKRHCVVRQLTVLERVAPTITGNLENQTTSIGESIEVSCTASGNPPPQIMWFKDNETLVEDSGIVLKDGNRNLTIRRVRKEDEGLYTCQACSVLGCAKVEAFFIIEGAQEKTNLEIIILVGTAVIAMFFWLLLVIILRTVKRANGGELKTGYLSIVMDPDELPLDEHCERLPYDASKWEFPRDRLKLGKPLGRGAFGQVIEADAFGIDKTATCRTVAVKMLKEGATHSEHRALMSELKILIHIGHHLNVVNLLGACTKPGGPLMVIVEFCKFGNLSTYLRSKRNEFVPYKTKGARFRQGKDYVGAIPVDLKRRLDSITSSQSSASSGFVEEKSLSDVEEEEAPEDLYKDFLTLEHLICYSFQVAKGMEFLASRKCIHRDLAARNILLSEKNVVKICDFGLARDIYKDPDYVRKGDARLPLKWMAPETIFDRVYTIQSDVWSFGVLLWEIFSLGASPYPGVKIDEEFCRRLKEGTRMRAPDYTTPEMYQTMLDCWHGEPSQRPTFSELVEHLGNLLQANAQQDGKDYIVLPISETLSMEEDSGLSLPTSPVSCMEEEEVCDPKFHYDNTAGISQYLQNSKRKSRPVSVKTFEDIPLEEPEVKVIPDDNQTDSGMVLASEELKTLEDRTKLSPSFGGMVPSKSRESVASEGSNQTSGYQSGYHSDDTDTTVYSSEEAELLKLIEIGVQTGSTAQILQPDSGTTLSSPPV

Structure (SMILES)	IC50 [1] [nM]	IC50 [2] [nM]	IC50 [3] [nM]	IC50 [4] [nM]
Cc1ncc(C(=O)NCCN(C)C2CCCC2)cc1Nc1nn(C)c2nc(Nc3cncnc3)ncc12 [Example 9, N-(2-(cyclopentyl(methyl)amino)ethyl)-6-methyl-5-((1-methyl-6-(pyrimidin-5-ylamino)-1H-pyrazolo[3,4-d]pyrimidin-3-yl)amino)nicotinamide]	> 7500	0.59	7	36.5
Cc1ncc(C(=O)NCCN(C)C2CCOCC2)cc1Nc1nn(C)c2nc(Nc3cncnc3)ncc12 [Example 10, 6-methyl-N-(2-(methyl(tetrahydro-2H-pyran-4-yl)amino)ethyl)-5-((1-methyl-6-(pyrimidin-5-ylamino)-1H-pyrazolo[3,4-d]pyrimidin-3-yl)amino)nicotinamide]	> 7500	0.63	9.9	204
Cc1ncc(C(=O)NCCN2CCCC[C@H]2C)cc1Nc1nn(C)c2nc(Nc3cncnc3)ncc12 [Example 11, (R)-6-methyl-5-((1-methyl-6-(pyrimidin-5-ylamino)-1H-pyrazolo[3,4-d]pyrimidin-3-yl)amino)-N-(2-(2-methylpiperidin-1-yl)ethyl)nicotinamide]	~6630	0.68	5.8	68.8
Cc1ncc(C(=O)NCCN2CCOCC23CC3)cc1Nc1nn(C)c2nc(Nc3cncnc3)ncc12 [Example 13, N-(2-(7-oxa-4-azaspiro[2.5]octan-4-yl)ethyl)-6-methyl-5-((1-methyl-6-(pyrimidin-5-ylamino)-1H-pyrazolo[3,4-d]pyrimidin-3-yl)amino)nicotinamide]	> 7500	1.55	12.8	152
Cc1ncc(C(=O)NCCN2[C@H](C)CCC[C@@H]2C)cc1Nc1nn(C)c2nc(Nc3cncnc3)ncc12 [Example 14, N-(2-((2S,6R)-2,6-dimethylpiperidin-1-yl)ethyl)-6-methyl-5-((1-methyl-6-(pyrimidin-5-ylamino)-1H-pyrazolo[3,4-d]pyrimidin-3-yl)amino)nicotinamide]	~7130	0.89	8.5	109
Cc1ncc(C(=O)NCCN(C(C)C)C(C)C)cc1Nc1nn(C)c2nc(Nc3cncnc3)ncc12 [Example 15, N-(2-(diisopropylamino)ethyl)-6-methyl-5-((1-methyl-6-(pyrimidin-5-ylamino)-1H-pyrazolo[3,4-d]pyrimidin-3-yl)amino)nicotinamide]	> 7500	1.01	9.9	33.2
Cc1ncc(NC(=O)NCCN2CCCC2(C)C)cc1Nc1nn(C)c2nc(Nc3cncnc3)ncc12 [Example 16, 1-(2-(2,2-dimethylpyrrolidin-1-yl)ethyl)-3-(6-methyl-5-((1-methyl-6-(pyrimidin-5-ylamino)-1H-pyrazolo[3,4-d]pyrimidin-3-yl)amino)pyridin-3-yl)urea]	> 7500	1.36	18.5	1480
Cc1ncc(C(=O)NCCN2CCCOCC2)cc1Nc1nn(C)c2nc(Nc3cnn(C)c3)ncc12 [Example 17, N-(2-(1,4-oxazepan-4-yl)ethyl)-6-methyl-5-((1-methyl-6-((1-methyl-1H-pyrazol-4-yl)amino)-1H-pyrazolo[3,4-d]pyrimidin-3-yl)amino)nicotinamide]	~6990	0.48	2.9	68.3
Cc1ncc(C(=O)NCCN2CCCC2(C)C)cc1Nc1nn(C)c2nc(Nc3cncnc3)ncc12 [Example 27, N-(2-(2,2-dimethylpyrrolidin-1-yl)ethyl)-6-methyl-5-((1-methyl-6-(pyrimidin-5-ylamino)-1H-pyrazolo[3,4-d]pyrimidin-3-yl)amino)nicotinamide]	> 10000	0.7	4	31.2
Cc1ncc(C(=O)NCCN2CCCC2(C)C)cc1Nc1nn(C)c2nc(Nc3ccncc3)ncc12 [Example 28, N-(2-(2,2-dimethylpyrrolidin-1-yl)ethyl)-6-methyl-5-((1-methyl-6-(pyridin-4-ylamino)-1H-pyrazolo[3,4-d]pyrimidin-3-yl)amino)nicotinamide]	~9180	0.5	3.8	39.4
Cc1ncc(C(=O)NCCN2CCCC2(C)C)cc1Nc1nn(C)c2nc(Nc3cncc(C(N)=O)c3)ncc12 [Example 29, 5-((6-((5-carbamoylpyridin-3-yl)amino)-1-methyl-1H-pyrazolo[3,4-d]pyrimidin-3-yl)amino)-N-(2-(2,2-dimethylpyrrolidin-1-yl)ethyl)-6-methylnicotinamide]	> 10000	0.8	6.6	5330
Cc1ncc(C(=O)NCCN2CCCC2(C)C)cc1Nc1nn(C)c2nc(Nc3cncc(C(=O)O)c3)ncc12 [Example 30, 5-((3-((5-((2-(2,2-dimethylpyrrolidin-1-yl)ethyl)carbamoyl)-2-methylpyridin-3-yl)amino)-1-methyl-1H-pyrazolo[3,4-d]pyrimidin-6-yl)amino)nicotinic acid]	> 10000	3.8	36.8	> 10000
Cc1ncc(C(=O)NCCN2CCCC2(C)C)cc1Nc1nn(C)c2nc(Nc3ccc(=O)n(C)n3)ncc12 [Example 31, N-(2-(2,2-dimethylpyrrolidin-1-yl)ethyl)-6-methyl-5-((1-methyl-6-((1-methyl-6-oxo-1,6-dihydropyridazin-3-yl)amino)-1H-pyrazolo[3,4-d]pyrimidin-3-yl)amino)nicotinamide]	> 7500	2.5	60.3	390
Cc1ncc(C(=O)NCCN2CCCC2(C)C)cc1Nc1nn(C)c2nc(Nc3ccc(N)nc3)ncc12 [Example 32, 5-((6-((6-aminopyridin-3-yl)amino)-1-methyl-1H-pyrazolo[3,4-d]pyrimidin-3-yl)amino)-N-(2-(2,2-dimethylpyrrolidin-1-yl)ethyl)-6-methylnicotinamide]	> 7500	0.54	5.7	110
Cc1ncc(C(=O)NCCN2CCCC2(C)C)cc1Nc1nn(C)c2nc(Nc3cncc(CC(=O)O)c3)ncc12 [Example 33, 2-(5-((3-((5-((2-(2,2-dimethylpyrrolidin-1-yl)ethyl)carbamoyl)-2-methylpyridin-3-yl)amino)-1-methyl-1H-pyrazolo[3,4-d]pyrimidin-6-yl)amino)pyridin-3-yl)acetic acid]	2190	1.21	8.8	> 3000
Cc1ncc(C(=O)NCCN2CCCC2(C)C)cc1Nc1nn(C)c2nc(Nc3ccc(=O)[nH]c3)ncc12 [Example 35, N-(2-(2,2-dimethylpyrrolidin-1-yl)ethyl)-6-methyl-5-((1-methyl-6-((6-oxo-1,6-dihydropyridin-3-yl)amino)-1H-pyrazolo[3,4-d]pyrimidin-3-yl)amino)nicotinamide]	> 7500	0.68	4.7	1650
Cc1ncc(C(=O)NCCN2CCCC2(C)C)cc1Nc1nn(C)c2nc(Nc3ccc(=O)[nH]n3)ncc12 [Example 36, N-(2-(2,2-dimethylpyrrolidin-1-yl)ethyl)-6-methyl-5-((1-methyl-6-((6-oxo-1,6-dihydropyridazin-3-yl)amino)-1H-pyrazolo[3,4-d]pyrimidin-3-yl)amino) nicotinamide]	> 7500	4.11	88.3	> 3000
